Data on three compounds can be found in patent publication US20230293735A1, “OXINE-CONTAINING CELL RADIOLABELLING AGENTS” (priority 2020, published 2023).

One data set relates to eosinophils. The following applies: ref. [31]; cited from earlier work.
Data set [1] can be described thus: Activity recovery from vial (gamma-counting of aliquots). In kind it is physicochemical. The following applies: for added ^89Zr activity recoverable: formulation with 5% EtOH. The protocol:
FIG. 9. Recovery of ^89Zr-oxine complexes from the reaction vial over time. The figure compares formulations containing 8-hydroxyquinoline, HEPES and NaOH only (dots), and additional 5% EtOH (squares) or 1 mg/mL polysorbate 80 (diamonds). ^89Zr-oxalate was added to 100 µL of the formulation of the invention in a glass vial and left at room temperature for up to 1 week. 10 µL aliquots were removed from the glass vial immediately after addition (0 min) and after 15 min, 30 min, 1, 2, 24, 48, 72 and 168 h, then gamma-counted at the end of the experiment. The recovered activity is expressed as the activity in the aliquot at the indicated time as a percentage of the activity sampled immediately after addition of ^89Zr to the-formulation of the invention. Mean±SD, N=3.
FIG. 10. Recovery of ^89Zr-oxine complexes from the reaction vial over time as a function of the amount of polysorbate 80. […] 10 µL aliquots were removed from the glass vial immediately after addition (0 min) and after 15 min, 30 min, 1, 2, 24, 48, 72 and 168 h, then gamma-counted at the end of the experiment. The recovered activity is expressed as the activity in the aliquot at the indicated time as a percentage of the activity sampled immediately after addition of ^89Zr to the formulation of the invention. […]
The stability of the compositions described herein can be assessed, for example, in terms of their recovered activity. The recovered activity is expressed as the percentage of activity (i.e. radioactivity, as assessed by gamma-counting) in a sample at the time of measurement, relative to the activity sampled immediately after addition of the radioactive metal containing solution to the oxine formulation described herein. […]
Activity recovery from vial: ^89Zr was added to 100 µL of the formulation. […] The aliquots were gamma-counted on day 7 after addition of ^89Zr. The percentage of activity recovered from the vial was determined as the counts in each sample divided by the counts in the reference sample.

Another data set relates to WBC. The data set can be described thus: Viability of radiolabelled cells, Trypan Blue dye exclusion. In kind it is cell-based, human. The protocol: FIG. 16. WBC radiolabelling with ^89Zr-oxine and ^111In-oxine. Percentage of viable ^89Zr- and ^111n-labelled WBC after 4 h and 24 h, measured using the Trypan blue assay. Mean ± SD of n=6 per group, Student’s two-tailed paired t-test. ns: not significant (p≥0.05).
Viability was assessed by microscopy using the Trypan Blue dye exclusion method. Cell viability after radiolabelling with ^89Zr-oxine was 99.4±0.3% immediately after labelling, 97.0±2.3% after 4 h and 92.6±4.8% after 24 h (FIG. 16).

Another data set deals with WBCs. The data set can be described thus: In vitro chemotaxis assay of radiolabelled WBC towards fMLP. In kind it is cell-based, human. The following applies: vs ^111In-oxine and unlabelled control cells. As for the experimental part:
FIG. 17. Chemotaxis of radiolabelled WBC. Cells were incubated with ^89Zr-oxine, ^111In-oxine, or vehicle only. The chemotaxis index is the number of cells migrating towards 10 nM fMLP divided by the number of cells migrating towards vehicle, averaged from triplicates for each sample. Each point represents one donor. Bars represent the mean ± SD of n = 9, 10 and 10 individual samples. p≥0.05.
The functionality of WBCs radiolabelled as in Example 8 was tested using an in vitro chemotaxis assay, where the number of WBCs migrating in response to the neutrophil chemoattractant N-formyl-Met-Leu-Phe (fMLP) was measured.
After radiolabelling, red blood cells (RBCs) were removed from the cell pellets hypotonic lysis. Cells were resuspended in 4.5 mL cold H2O for 30 s, after which isotonicity was restored by addition of 0.5 mL 10x PBS. Lysed RBC were removed by centrifugation and the remaining WBC were resuspended in assay medium at 3.5×10^6 cells/mL. […] The top wells were emptied, the plate was centrifuged at 150 g for 5 min to detach the cells from the membrane and the cells in the bottom wells were counted using a haemocytometer. The chemotaxis index (CI) was calculated by dividing the number of WBC in the wells containing fMLP by the number of WBC in the wells containing medium only.

The next data set relates to WBC populations. The data set can be described thus: Relative activity per cell in FACS-sorted WBC populations, gamma-counted. Conditions: flow-assisted cell sorting. In kind it is cell-based, human. The protocol: FIG. 18. Relative activity per cell of ^89Zr in WBC populations after labelling of mixed WBC with ^89Zr-oxine. Radiolabelled WBC were sorted by FACS and gamma-counted. Each point represents cells from an individual donor.
To determine whether certain subtypes of WBC had preferential uptake of ^89Zr-oxine, radiolabelled WBC were stained with fluorescent monoclonal antibodies, automatically sorted and gamma-counted. ^89Zr-radiolabelled WBC were stained (15 min at 4° C.) with a combination of CD45-APC-Vio770 (#130-110-773), CD3-PE (REA613, #130-113-701), CD14-APC (#130-110-578), CD19-PE-Vio770 (REA675, #130-114-173) and CD16-FITC (REA423, #130-113-954) antibodies to sort samples into neutrophils, eosinophils, monocytes, T cells and B cells, or CD45-APC-Vio770, […] (REA175, #130-117-800) and CD41a-PE (REA386, #130-121-429) to sort red blood cells and platelets. Compensation settings were adjusted using beads (anti-REA MACS® Comp, #130-104-693). Samples were analysed and sorted on a FACSMelody instrument (BD Biosciences) equipped with blue (488 nm), yellow-green ([…]) and red (633 nm) lasers. For each cell type, a fixed number of events was collected, and the fractions were gamma-counted to determine the amount of activity per cell.

In another data set the test system is Extracellular vesicles. The data set can be described thus: Radiolabelling efficiency of extracellular vesicles. Conditions: EVs from B16-F10.GFP, MDA-MB-231.CD63-GFP, PANC1, 4T1 and 2D/3D MSC cultures. The protocol:
FIG. 23. Use of the kit formulation to radiolabel extracellular vesicles (EVs) for imaging purposes.
Extracellular vesicles are isolated by any suitable method (e.g. by density gradient centrifugation). Extracellular vesicles (e.g. 1×10^10 to 1×10^11 vesicles) in 160 µL PBS were incubated with 20 µL ^89Zr-oxine or unchelated ^89Zr for 20 min at 37° C. with frequent shaking, followed by addition of 100 µL 1% deferoxamine in PBS to trap any unbound ^89Zr. Radiolabelled EVs were purified from unchelated radiotracer by size-exclusion chromatography (SEC) using cross-linked agarose resin (e.g. Sepharose CL-2B, GE Healthcare) in plastic columns. The reaction mixture was loaded onto the column followed by 200 µL PBS and eluted with 700-800 µL PBS. Radioactivity of the eluate and the column was measured using gamma counting to calculate labelling efficiency. The labelling efficiency of EVs obtained from B16-F10.GFP, MDA-MB-231.CD63-GFP, PANC1 and 4T1 cell lines and from 2D and 3D cultures of mesenchymal stem cells (MSC) B with ^89Zr-oxine ranged from 5.4 ± 3.2% for 2D-culture derived MSC-EVs to 27.6 ± 6.5% for 4T1 EVs (FIG. 23).

Another data set deals with Human WBCs. The data set can be described thus: Radiolabel retention in radiolabelled WBC in autologous cell free plasma. In kind it is cell-based. The following applies: p>0.05, n=10. As for the experimental part: Human WBCs from 10 healthy donors were radiolabelled with ^89Zr-oxine and ^111In-oxine as described in Example 8 and an intra-individual comparison of labelling with ^89Zr-oxine and ^111In-oxine was performed. Labelling efficiency was determined as described in Example 7. For radiolabel retention studies, radiolabelled WBC were suspended in autologous CFP (cell free plasma), in triplicate in a 24-well plate and incubated at 37° C. Cells were collected after 4 h or 24 h, diluted with PBS, centrifuged at 200 g for 10 min, and supernatants and pellets were measured in a dose calibrator to determine retention using the same formula as for labelling efficiency. The labelling efficiency of WBCs with ^89Zr-oxine was 48.7±6.3%, vs 89.1±9.5 (p<0.0001, n=10) for ^111In-oxine (FIG. 14). Cellular retention of ^89Zr was 91.4±1.4% after 4 h incubation in autologous CFP and 86.6±2.9% after 24 h (FIG. 15). […] The labelling of WBC with ^89Zr-oxine was reliable, consistently achieving 45-50% labelling efficiency with 160-480 million cells.

Molecules are shown by their SMILES.

As for `C/C(=N\[O-])[C@@H](C)[N-]CC(C)(C)C[N-][C@H](C)/C(C)=N/O.[O]=[99Tc+3]` (racemic) [^99mTc-HMPAO], the “preferential accumulation in leucocyte subtype” value in the data set with eosinophils was “accumulated preferentially in eosinophils”.
Take `c1cnc2c([O][89Zr]([O]c3cccc4cccnc34)([O]c3cccc4cccnc34)[O]c3cccc4cccnc34)cccc2c1` [^89Zr-oxine]: the “added activity recoverable from the vial” value in data set [1] (1 M HEPES buffer (pH 7.9), no surfactant or organic solvent, glass vessel, 15 min after addition of ^89Zr) was 46%. Moreover, the figures for the “added ^89Zr activity recoverable” value in data set [1] (after 1 h) and in data set [1] (after 24 h) were 46% and “less than 6%”, respectively. Moreover, the “cell viability after radiolabelling” value in the data set with WBC (after 4 h) is listed as 97.0±2.3%; in the data set on WBC (after 24 h), 92.6±4.8%; in the data set with WBC (immediately after labelling), 99.4±0.3%. Moreover, in the data set with WBCs, the “chemotactic properties of labelled WBC” value is listed as “retained their chemotactic properties”. The “preferential uptake by leukocyte populations” value with WBC populations is “no preferential uptake by any specific leukocyte population”. In addition, the “uptake in RBCs and platelets” value with WBC populations is reported as “significant uptake”. For the same compound, the “labelling efficiency of EVs compared to unchelated ^89Zr” value in the data set on Extracellular vesicles is recorded as “higher labelling efficiency”.
As to `c1cnc2c([O][111In]([O]c3cccc4cccnc34)[O]c3cccc4cccnc34)cccc2c1` [^111In-oxine, reference compound], in the data set with Human WBCs, the “radiolabelling agent retention compared with ^89Zr-oxine” value was “no significant differences”. Also, the “viability compared with ^89Zr-oxine” value in the data set with WBC (p>0.05, n=6-10) is recorded as “no significant differences”.
